Data set [1] in a line: Solubility measurement (peptide concentration in saturated solution). The settings on record: sodium-phosphate buffer, pH 7.4, aqueous buffer, thermodynamic from solid.
Procedure: Approximately 2 mg of each peptide was added to 500 µl of buffer in 1.5-ml Eppendorf tubes. The tubes were shaken at 25 °C for 2 h on a 900 r.p.m. vortex shaker. The samples were centrifuged at 12,000 r.p.m. for 15 min to remove the precipitate and the supernatant was analyzed by ultraviolet–visible light (UV–vis) spectrometry.
Data set [2] concerns the target SARS-CoV-2 RBD binding to immobilized ACE2 (Severe acute respiratory syndrome coronavirus 2, UniProt P0DTC2). The data set can be described thus: biochemical.
In another data set the target is SARS-CoV-2 RBD (Severe acute respiratory syndrome coronavirus 2, UniProt P0DTC2). Kind of data set: biochemical. The conditions noted are these: for Kd: KD (direct binding to RBD); for kon: read-out: ka. The class given is binding.

As usually defined, the solubility (thermodynamic) is the concentration in solution at equilibrium with solid. In general, IC50 refers to the point on the concentration scale where inhibition reaches its midpoint. A higher IC50 goes with lower potency. What is called Kd is the concentration at which binding is half-saturated. The low end stands for tighter binding, the high end for weaker binding.

≈ marks a conversion by molar mass, not a printed value. Where a SMILES comes first, the peptide text is derived from it. [ ]: non-standard residue; d: D form. Phe(3,4-F2) = N[C@@H](Cc1ccc(F)c(F)c1)C(=O)O; Cha = N[C@@H](CC1CCCCC1)C(=O)O; Aib = CC(C)(N)C(=O)O

For the molecule `CC[C@H](C)[C@H](NC(=O)[C@H](CC(C)C)NC(=O)[C@H](CC(=O)O)NC(=O)[C@H](CO)NC(=O)[C@@H](NC(=O)[C@H](CCCNC(=N)N)NC(=O)[C@H](CCSC)NC(=O)[C@H](CO)NC(=O)[C@H](C)NC(=O)[C@H](CCC(=O)O)NC(=O)C(C)(C)NC(=O)[C@H](CC(N)=O)NC(=O)[C@@H](C)NC(=O)[C@H](CC(C)C)NC(=O)[C@H](CCC(=O)O)NC(=O)[C@H](CC(=O)O)NC(=O)[C@H](CC(C)C)NC(=O)[C@H](CC(C)C)NC(=O)[C@H](CCCNC(=N)N)NC(=O)[C@H](CCSC)NC(=O)[C@@H](NC(=O)[C@H](CCC(=O)O)NC(=O)[C@H](Cc1ccc(O)cc1)NC(=O)[C@@H](NC(=O)[C@H](CCCCN)NC(=O)[C@H](CCC(N)=O)NC(=O)[C@H](CC(C)C)NC(=O)[C@@H](NC(=O)[C@H](Cc1c[nH]c2ccccc12)NC(=O)[C@H](CCC(=O)O)NC(=O)[C@H](CCCCN)NC(=O)[C@@H](N)CC(=O)O)[C@@H](C)CC)[C@@H](C)CC)[C@@H](C)CC)C(C)C)C(=O)N[C@@H](Cc1ccc(O)cc1)C(=O)N[C@@H](CCC(=O)O)C(=O)N[C@@H](Cc1ccccc1)C(=O)N[C@@H](CCSC)C(=O)N[C@@H](CCCCN)C(=O)N[C@@H](CCCCN)C(N)=O` [SIH-4] (H-DKEWILQKIYEIMRLLDEL[dA]N[Aib]EASMRVSDLIYEFMKK-NH2), in data set [1], the thermodynamic solubility at 2 h amounted to 220 µM (≈ 1020 µg/mL). The IC50 in data set [2] lay in the range of 0.25 to 0.5 µM.

Turning to `CC[C@H](C)[C@H](NC(=O)[C@H](CC(C)C)NC(=O)[C@H](CC(=O)O)NC(=O)[C@H](CO)NC(=O)[C@@H](NC(=O)[C@H](CCCNC(=N)N)NC(=O)[C@H](CCSC)NC(=O)[C@H](CO)NC(=O)[C@H](C)NC(=O)[C@H](CCC(=O)O)NC(=O)[C@H](C)NC(=O)[C@H](Cc1c[nH]cn1)NC(=O)CNC(=O)[C@H](CC(C)C)NC(=O)[C@H](CCC(=O)O)NC(=O)[C@H](CC(=O)O)NC(=O)[C@H](CC(C)C)NC(=O)[C@H](CC(C)C)NC(=O)[C@H](CCCNC(=N)N)NC(=O)[C@H](CCSC)NC(=O)[C@@H](NC(=O)[C@H](CCC(=O)O)NC(=O)[C@H](Cc1ccc(O)cc1)NC(=O)[C@@H](NC(=O)[C@H](CCCCN)NC(=O)[C@H](CCC(N)=O)NC(=O)[C@H](CC(C)C)NC(=O)[C@@H](NC(=O)[C@H](Cc1c[nH]c2ccccc12)NC(=O)[C@H](CCC(=O)O)NC(=O)[C@H](CCCCN)NC(=O)[C@@H](N)CC(=O)O)[C@@H](C)CC)[C@@H](C)CC)[C@@H](C)CC)C(C)C)C(=O)N[C@@H](Cc1ccc(O)cc1)C(=O)N[C@@H](CCC(=O)O)C(=O)N[C@@H](Cc1ccccc1)C(=O)N[C@@H](CCSC)C(=O)N[C@@H](CCCCN)C(=O)N[C@@H](CCCCN)C(N)=O` [SIH-1], the thermodynamic solubility at 2 h in data set [1] was found to be 17 µM (≈ 78.9 µg/mL). The molecule further gave an IC50 in data set [2] of 2.5 to 5 µM.

Turning to `CC[C@H](C)[C@H](NC(=O)[C@H](CCC(=O)O)NC(=O)[C@H](CC(=O)O)NC(=O)[C@H](CO)NC(=O)[C@@H](NC(=O)[C@H](CCCNC(=N)N)NC(=O)[C@H](CCSC)NC(=O)[C@H](CO)NC(=O)[C@H](C)NC(=O)[C@H](CCC(=O)O)NC(=O)C(C)(C)NC(=O)[C@H](CC(=O)O)NC(=O)[C@@H](C)NC(=O)[C@H](CC(C)C)NC(=O)[C@H](CCC(=O)O)NC(=O)[C@H](CC(=O)O)NC(=O)[C@H](CC(C)C)NC(=O)[C@H](CC(C)C)NC(=O)[C@H](CCCNC(=N)N)NC(=O)[C@H](CCSC)NC(=O)[C@H](CCC(=O)O)NC(=O)[C@H](CCC(=O)O)NC(=O)[C@H](Cc1ccc(O)cc1)NC(=O)[C@@H](NC(=O)[C@H](CCCCN)NC(=O)[C@H](CCC(N)=O)NC(=O)[C@H](CC(C)C)NC(=O)[C@@H](NC(=O)[C@H](Cc1c[nH]c2ccccc12)NC(=O)[C@H](CCC(=O)O)NC(=O)[C@H](CCCCN)NC(=O)[C@@H](N)CC(=O)O)[C@@H](C)CC)[C@@H](C)CC)C(C)C)C(=O)N[C@@H](Cc1ccc(O)cc1)C(=O)N[C@@H](CCC(=O)O)C(=O)N[C@@H](Cc1ccccc1)C(=O)N[C@@H](CCSC)C(=O)N[C@@H](CCCCN)C(=O)N[C@@H](CCCCN)C(N)=O` [SIH-15] (H-DKEWILQKIYEEMRLLDEL[dA]D[Aib]EASMRVSDEIYEFMKK-NH2), at SARS-CoV-2 RBD, the Kd worked out at 0.0017 µM and the kon came out at 150000 M⁻¹ s⁻¹. The molecule further gave an IC50 in data set [2] of 0.25 to 0.5 µM.

`CC[C@H](C)[C@H](NC(=O)[C@H](CC(C)C)NC(=O)[C@H](CC(=O)O)NC(=O)[C@H](CO)NC(=O)[C@@H](NC(=O)[C@H](CCCNC(=N)N)NC(=O)[C@H](CCSC)NC(=O)[C@H](CO)NC(=O)[C@H](C)NC(=O)[C@H](CCC(=O)O)NC(=O)C(C)(C)NC(=O)[C@H](CC(=O)O)NC(=O)[C@@H](C)NC(=O)[C@H](CC(C)C)NC(=O)[C@H](CCC(=O)O)NC(=O)[C@H](CC(=O)O)NC(=O)[C@H](CC(C)C)NC(=O)[C@H](CC(C)C)NC(=O)[C@H](CCCNC(=N)N)NC(=O)[C@H](CCSC)NC(=O)[C@@H](NC(=O)[C@H](CCC(=O)O)NC(=O)[C@H](Cc1ccc(F)c(F)c1)NC(=O)[C@@H](NC(=O)[C@H](CCCCN)NC(=O)[C@H](CCC(N)=O)NC(=O)[C@H](CC(C)C)NC(=O)[C@@H](NC(=O)[C@H](Cc1c[nH]c2ccccc12)NC(=O)[C@H](CCC(=O)O)NC(=O)[C@H](CCCCN)NC(=O)[C@@H](N)CC(=O)O)[C@@H](C)CC)[C@@H](C)CC)[C@@H](C)CC)C(C)C)C(=O)N[C@@H](Cc1ccc(O)cc1)C(=O)N[C@@H](CCC(=O)O)C(=O)N[C@@H](CC1CCCCC1)C(=O)N[C@@H](CCSC)C(=O)N[C@@H](CCCCN)C(=O)N[C@@H](CCCCN)C(N)=O` [SIH-13] (H-DKEWILQKI[Phe(3,4-F2)]EIMRLLDEL[dA]D[Aib]EASMRVSDLIYE[Cha]MKK-NH2) registered a Kd on SARS-CoV-2 RBD of 0.0016 µM. In data set [2], this molecule returned an IC50 of 0.125 to 0.25 µM.

With `CC[C@H](C)[C@H](NC(=O)[C@H](CC(C)C)NC(=O)[C@H](CC(=O)O)NC(=O)[C@H](CO)NC(=O)[C@@H](NC(=O)[C@H](CCCNC(=N)N)NC(=O)[C@H](CCSC)NC(=O)[C@H](CO)NC(=O)[C@H](C)NC(=O)[C@H](CCC(=O)O)NC(=O)C(C)(C)NC(=O)[C@H](CC(=O)O)NC(=O)[C@@H](C)NC(=O)[C@H](CC(C)C)NC(=O)[C@H](CCC(=O)O)NC(=O)[C@H](CC(=O)O)NC(=O)[C@H](CC(C)C)NC(=O)[C@H](CC(C)C)NC(=O)[C@H](CCCNC(=N)N)NC(=O)[C@H](CCSC)NC(=O)[C@@H](NC(=O)[C@H](CCC(=O)O)NC(=O)[C@H](Cc1ccc(F)c(F)c1)NC(=O)[C@@H](NC(=O)[C@H](CCCCN)NC(=O)[C@H](CCC(N)=O)NC(=O)[C@H](CC(C)C)NC(=O)[C@@H](NC(=O)[C@H](Cc1c[nH]c2ccccc12)NC(=O)[C@H](CCC(=O)O)NC(=O)[C@H](CCCCN)NC(=O)[C@@H](N)CC(=O)O)[C@@H](C)CC)[C@@H](C)CC)[C@@H](C)CC)C(C)C)C(=O)N[C@@H](Cc1ccc(O)cc1)C(=O)N[C@@H](CCC(=O)O)C(=O)N[C@@H](Cc1ccccc1)C(=O)N[C@@H](CCSC)C(=O)N[C@@H](CCCCN)C(=O)N[C@@H](CCCCN)C(N)=O` [SIH-7] (H-DKEWILQKI[Phe(3,4-F2)]EIMRLLDEL[dA]D[Aib]EASMRVSDLIYEFMKK-NH2), the Kd on SARS-CoV-2 RBD is 0.0029 µM. In data set [2], this molecule displayed an IC50 of 0.125 to 0.25 µM.

Turning to `CC[C@H](C)[C@H](NC(=O)[C@H](CC(C)C)NC(=O)[C@H](CC(=O)O)NC(=O)[C@H](CO)NC(=O)[C@@H](NC(=O)[C@H](CCCNC(=N)N)NC(=O)[C@H](CCSC)NC(=O)[C@H](CO)NC(=O)[C@H](C)NC(=O)[C@H](CCC(=O)O)NC(=O)C(C)(C)NC(=O)[C@H](Cc1c[nH]cn1)NC(=O)[C@@H](C)NC(=O)[C@H](CC(C)C)NC(=O)[C@H](CCC(=O)O)NC(=O)[C@H](CC(=O)O)NC(=O)[C@H](CC(C)C)NC(=O)[C@H](CC(C)C)NC(=O)[C@H](CCCNC(=N)N)NC(=O)[C@H](CCSC)NC(=O)[C@@H](NC(=O)[C@H](CCC(=O)O)NC(=O)[C@H](Cc1ccc(O)cc1)NC(=O)[C@@H](NC(=O)[C@H](CCCCN)NC(=O)[C@H](CCC(N)=O)NC(=O)[C@H](CC(C)C)NC(=O)[C@@H](NC(=O)[C@H](Cc1c[nH]c2ccccc12)NC(=O)[C@H](CCC(=O)O)NC(=O)[C@H](CCCCN)NC(=O)[C@@H](N)CC(=O)O)[C@@H](C)CC)[C@@H](C)CC)[C@@H](C)CC)C(C)C)C(=O)N[C@@H](Cc1ccc(O)cc1)C(=O)N[C@@H](CCC(=O)O)C(=O)N[C@@H](Cc1ccccc1)C(=O)N[C@@H](CCSC)C(=O)N[C@@H](CCCCN)C(=O)N[C@@H](CCCCN)C(N)=O` [SIH-3] (H-DKEWILQKIYEIMRLLDEL[dA]H[Aib]EASMRVSDLIYEFMKK-NH2), the solubility (thermodynamic) at 2 h in data set [1] came to 95 µM (≈ 444 µg/mL). In addition, the IC50 in data set [2] is 0.125 to 0.25 µM.

As for `CC[C@H](C)[C@H](NC(=O)[C@H](C)NC(=O)[C@H](CC(=O)O)NC(=O)[C@H](CO)NC(=O)[C@@H](NC(=O)[C@H](CCCNC(=N)N)NC(=O)[C@H](CCSC)NC(=O)[C@H](CO)NC(=O)[C@H](C)NC(=O)[C@H](CCC(=O)O)NC(=O)C(C)(C)NC(=O)[C@H](CC(=O)O)NC(=O)[C@@H](C)NC(=O)[C@H](CC(C)C)NC(=O)[C@H](CCC(=O)O)NC(=O)[C@H](CC(=O)O)NC(=O)[C@H](CC(C)C)NC(=O)[C@H](CC(C)C)NC(=O)[C@H](CCCNC(=N)N)NC(=O)[C@H](CCSC)NC(=O)[C@H](C)NC(=O)[C@H](CCC(=O)O)NC(=O)[C@H](Cc1ccc(O)cc1)NC(=O)[C@@H](NC(=O)[C@H](CCCCN)NC(=O)[C@H](CCC(N)=O)NC(=O)[C@H](CC(C)C)NC(=O)[C@@H](NC(=O)[C@H](Cc1c[nH]c2ccccc12)NC(=O)[C@H](CCC(=O)O)NC(=O)[C@H](CCCCN)NC(=O)[C@@H](N)CC(=O)O)[C@@H](C)CC)[C@@H](C)CC)C(C)C)C(=O)N[C@@H](Cc1ccc(O)cc1)C(=O)N[C@@H](CCC(=O)O)C(=O)N[C@@H](Cc1ccccc1)C(=O)N[C@@H](CCSC)C(=O)N[C@@H](CCCCN)C(=O)N[C@@H](CCCCN)C(N)=O` [SIH-14] (H-DKEWILQKIYEAMRLLDEL[dA]D[Aib]EASMRVSDAIYEFMKK-NH2), at SARS-CoV-2 RBD, the Kd came to 0.003 µM and the kon is 90000 M⁻¹ s⁻¹. This molecule gave a 50% inhibitory concentration (IC50) in data set [2] of 0.25 to 0.5 µM.

Source of the values: publication PMC9512702 (Nature Chemical Biology, 2022).
